Tests used:
[1] = target: T1, ALK L1196M/G1202R (Homo sapiens, UniProt Q9UM73, G1202R/L1196M); assay: Biochemical kinase assay, ALK L1196M/G1202R kinase domain; details: apparent inhibitory constant, Morrison equation; ATP 2 mM in substrate solution; read-out: ALK-L1196M-G1202R Ki^app
T1 construct: purchased SignalChem A19-12NG
Method in brief: (§1)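 Apparent Ki values come from fitting initial reaction rates against inhibitor concentration to the Morrison equation. Rates were taken from the linear phase of fluorogenic substrate phosphorylation (AQT0101 for ALK and ROS1, AQT0104 for TRKA; 26 μM in substrate solution with 2 mM ATP), monitored at 485 nm over 120 min at 30° C.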

[2] = target: T2, Ba/F3 cells CD74-ROS1 G2032R (Homo sapiens, UniProt P08922, G2032R); assay: Ba/F3 cell proliferation assay, CD74-ROS1 G2032R; type: cell-based; details: 72 hours, CellTiter-Glo
T2 construct: fusion of the C-terminus of ROS1 with the N-terminus of various partner proteins; host or cells: Ba/F3 (RIKEN), retroviral pMSCV-puro; the other entry of the earlier key: CD74 (P04233, HLA class II histocompatibility antigen gamma chain)
Method in brief: (§2)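 First, retrovirally infected Ba/F3 cells were made IL-3-independent and selected with puromycin (0.8 μg/mL). Next, cells were plated and rested one day. Then compounds in 3-fold dilutions were added for 72 hours before CellTiter-Glo readout.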

[3] = target: T3, Ba/F3 cells TPM3-TRKA (Homo sapiens, UniProt P04629); assay: Ba/F3 cell proliferation assay, TPM3-TRKA; type: cell-based; details: 72 hours, CellTiter-Glo, read-out: TPM3-NTRK1-wt IC50
T3 construct: host or cells: Ba/F3 (RIKEN), retroviral pMSCV-puro; the other entry of the earlier key: TPM3 (P06753, Tropomyosin alpha-3 chain)
Method in brief: (§3)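 Ba/F3 lines stably expressing the fusion (retroviral pMSCV-puro, selected by IL-3 withdrawal plus puromycin 0.8 μg/mL, monoclonal) were seeded at 1,000 cells/well, dosed next day with 3-fold compound dilutions, and incubated 72 hours. CellTiter-Glo luminescence gave percent inhibition; IC50 by four-parameter logistic fit.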

[4] = target: T4, TRKA-wt (Homo sapiens, UniProt P04629); assay: Biochemical kinase assay, TRKA-wt kinase domain; details: apparent inhibitory constant, Morrison equation; ATP 2 mM in substrate solution; read-out: TRKA-wt Ki^app
T4 construct: or TRKA-wt (1 nM, BPS Bio, 40280) kinase domains in buffer; purchased BPS Bio 40280
Method in brief: as §1

[5] = target: T5, ROS1-wt (Homo sapiens, UniProt P08922); assay: Biochemical kinase assay, ROS1-wt kinase domain; details: apparent inhibitory constant, Morrison equation; ATP 2 mM in substrate solution; read-out: ROS1-wt Ki^app
T5 construct: purchased Carna 08-163
Method in brief: (§4)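 Compounds, as 100-fold DMSO stocks, were dispensed first, then substrate mix was added (ATP 2 mM, AQT0101 26 μM, in 50 mM HEPES pH 7.5/10 mM MgCl2). Reactions ran at 30 °C with fluorescence logged every 2 min over 120 min. Apparent inhibition constants came from fitting rates to Morrison's tight-binding equation.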

[6] = target: T6, ALK-wt (Homo sapiens, UniProt Q9UM73); assay: Biochemical kinase assay, ALK-wt kinase domain; details: apparent inhibitory constant, Morrison equation; ATP 2 mM in substrate solution; read-out: ALK-wt Ki^app
T6 construct: purchased Carna 08-518
Method in brief: as §1

[7] = test system: TPM3-NTRK1-wt IC50 / primary target IC50 (e.g. CD74-ROS1-wt); assay: TRKA selectivity in Ba/F3 cells (TRKA potency divided by primary target potency); type: cell-based; details: for TPM3-NTRK1-wt/CD74-ROS1-G2032R selectivity ratio: TRKA potency / CD74-ROS1-G2032R potency; for TPM3-NTRK1-wt/CD74-ROS1-wt selectivity ratio: TRKA potency / CD74-ROS1-wt potency; for TPM3-NTRK1-wt/EML4-ALK-L1196M-G1202R selectivity ratio: TRKA potency / EML4-ALK-L1196M-G1202R potency; for TPM3-NTRK1-wt/EML4-ALK-wt selectivity ratio: TRKA potency / EML4-ALK-wt potency
Experimental: TRKA selectivity was calculated by dividing a compound's TRKA potency by its primary target potency (e.g. TPM3-NTRK1-wt IC50/CD74-ROS1-wt IC50). Compound selectivity can be interpreted by binning ratio values: bin A for very high selectivity, ratio >30-fold; bin B for high selectivity, ratio >10-fold; bin C for moderate selectivity, ratio ≥1; and bin D for low selectivity, ratio <1. […] (nd=not determined).

[8] = target: T7, Ba/F3 cells CD74-ROS1 wild-type (wt) (Homo sapiens, UniProt P08922); assay: Ba/F3 cell proliferation assay, CD74-ROS1 wild-type; type: cell-based; details: 72 hours, CellTiter-Glo
T7 construct: fusion of the C-terminus of ROS1 with the N-terminus of various partner proteins; host or cells: Ba/F3 (RIKEN), retroviral pMSCV-puro; the other entry of the earlier key: CD74 (P04233, HLA class II histocompatibility antigen gamma chain)
Method in brief: as §2

[9] = target: T8, Ba/F3 cells EML4-ALK L1196M/G1202R (variant 1) (Homo sapiens, UniProt Q9UM73, G1202R/L1196M); assay: Ba/F3 cell proliferation assay, EML4-ALK L1196M/G1202R (variant 1); type: cell-based; details: 72 hours, CellTiter-Glo
T8 construct: echinoderm microtubule-associated protein-like 4 (EML4) gene and the ALK tyrosine kinase domain; host or cells: Ba/F3 (RIKEN), retroviral pMSCV-puro; the other entry of the earlier key: EML4 (Q9HC35, Echinoderm microtubule-associated protein-like 4)
Method in brief: as §3

[10] = target: T9, Ba/F3 cells EML4-ALK wt (variant 1) (Homo sapiens, UniProt Q9UM73); assay: Ba/F3 cell proliferation assay, EML4-ALK wt (variant 1); type: cell-based; details: 72 hours, CellTiter-Glo
T9 construct: echinoderm microtubule-associated protein-like 4 (EML4) gene and the ALK tyrosine kinase domain; host or cells: Ba/F3 (RIKEN), retroviral pMSCV-puro; the other entry of the earlier key: EML4 (Q9HC35, Echinoderm microtubule-associated protein-like 4)
Method in brief: as §3

[11] = target: T10, ROS1-G2032R (Homo sapiens, UniProt P08922, G2032R); assay: Biochemical kinase assay, ROS1-G2032R kinase domain; details: apparent inhibitory constant, Morrison equation; ATP 2 mM in substrate solution; read-out: ROS1-G2032R Ki^app
T10 construct: purchased SignalChem R14-12BG
Method in brief: as §4

T8 sequence (Q9UM73 with tags, fused parts or gaps L1196M/G1202R): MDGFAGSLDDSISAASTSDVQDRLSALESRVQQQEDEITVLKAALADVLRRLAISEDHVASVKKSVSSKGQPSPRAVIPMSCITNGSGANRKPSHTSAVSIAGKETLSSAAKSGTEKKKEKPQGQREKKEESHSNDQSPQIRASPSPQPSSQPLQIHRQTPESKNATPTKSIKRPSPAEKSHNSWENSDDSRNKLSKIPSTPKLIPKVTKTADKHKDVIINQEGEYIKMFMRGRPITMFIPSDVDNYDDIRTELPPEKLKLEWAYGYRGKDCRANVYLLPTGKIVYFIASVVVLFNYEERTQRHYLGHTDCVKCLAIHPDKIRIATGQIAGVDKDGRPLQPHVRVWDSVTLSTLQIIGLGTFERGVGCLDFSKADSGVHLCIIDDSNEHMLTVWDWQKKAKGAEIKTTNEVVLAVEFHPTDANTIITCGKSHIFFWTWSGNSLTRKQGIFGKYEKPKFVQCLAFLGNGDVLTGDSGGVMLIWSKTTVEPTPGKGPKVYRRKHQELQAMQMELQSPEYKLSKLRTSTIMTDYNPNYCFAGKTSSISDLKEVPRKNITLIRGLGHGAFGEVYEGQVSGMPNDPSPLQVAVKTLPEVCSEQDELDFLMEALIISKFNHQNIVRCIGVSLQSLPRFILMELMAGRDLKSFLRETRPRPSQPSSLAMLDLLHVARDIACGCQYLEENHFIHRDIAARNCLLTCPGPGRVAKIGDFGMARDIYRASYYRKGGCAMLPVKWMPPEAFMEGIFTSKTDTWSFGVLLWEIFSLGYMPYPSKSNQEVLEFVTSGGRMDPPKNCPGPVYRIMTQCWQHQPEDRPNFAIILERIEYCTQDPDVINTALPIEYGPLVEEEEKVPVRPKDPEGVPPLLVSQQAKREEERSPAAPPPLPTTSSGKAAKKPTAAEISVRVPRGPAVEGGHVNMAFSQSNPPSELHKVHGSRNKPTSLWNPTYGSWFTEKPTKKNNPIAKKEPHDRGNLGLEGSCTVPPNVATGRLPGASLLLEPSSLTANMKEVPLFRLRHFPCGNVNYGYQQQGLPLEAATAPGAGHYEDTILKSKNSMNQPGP
T2 sequence (P08922 1883-2347 G2032R limits assumed): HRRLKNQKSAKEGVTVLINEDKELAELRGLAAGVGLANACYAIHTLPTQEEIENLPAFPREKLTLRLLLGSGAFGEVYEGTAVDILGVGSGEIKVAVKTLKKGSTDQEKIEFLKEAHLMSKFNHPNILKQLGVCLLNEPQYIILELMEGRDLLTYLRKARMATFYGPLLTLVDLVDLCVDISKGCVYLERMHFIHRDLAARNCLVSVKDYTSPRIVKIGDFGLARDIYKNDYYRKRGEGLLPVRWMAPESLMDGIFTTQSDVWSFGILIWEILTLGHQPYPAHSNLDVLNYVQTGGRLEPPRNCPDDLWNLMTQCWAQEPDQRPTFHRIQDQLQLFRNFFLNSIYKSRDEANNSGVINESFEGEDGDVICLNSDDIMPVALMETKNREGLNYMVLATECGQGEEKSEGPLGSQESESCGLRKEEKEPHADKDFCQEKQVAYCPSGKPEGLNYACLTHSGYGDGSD
T3 sequence (P04629 510-796 limits assumed): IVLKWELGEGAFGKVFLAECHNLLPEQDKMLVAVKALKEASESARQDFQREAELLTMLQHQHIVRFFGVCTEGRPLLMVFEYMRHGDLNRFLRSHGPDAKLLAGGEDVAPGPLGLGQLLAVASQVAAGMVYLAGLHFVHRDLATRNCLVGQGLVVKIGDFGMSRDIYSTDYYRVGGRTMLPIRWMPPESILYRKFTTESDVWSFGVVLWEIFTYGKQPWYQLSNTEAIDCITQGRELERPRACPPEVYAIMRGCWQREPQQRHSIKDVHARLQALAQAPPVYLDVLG
T7 sequence (P08922 1883-2347 limits assumed): as the sequence (P08922 1883-2347 G2032R limits assumed) above, with R150G counted along it
T9 sequence (Q9UM73 with tags, fused parts or gaps): as the sequence (Q9UM73 with tags, fused parts or gaps L1196M/G1202R) above, with M635L, R641G counted along it
T6 sequence (Q9UM73 1116-1392 limits assumed): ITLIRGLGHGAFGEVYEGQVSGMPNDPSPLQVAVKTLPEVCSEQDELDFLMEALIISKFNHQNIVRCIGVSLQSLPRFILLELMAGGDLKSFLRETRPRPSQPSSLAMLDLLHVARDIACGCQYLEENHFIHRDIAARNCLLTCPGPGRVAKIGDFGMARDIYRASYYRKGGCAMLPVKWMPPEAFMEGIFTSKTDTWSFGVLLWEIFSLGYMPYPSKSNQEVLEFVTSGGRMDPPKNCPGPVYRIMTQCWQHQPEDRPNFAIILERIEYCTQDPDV
T5 sequence (P08922 1945-2222 limits assumed): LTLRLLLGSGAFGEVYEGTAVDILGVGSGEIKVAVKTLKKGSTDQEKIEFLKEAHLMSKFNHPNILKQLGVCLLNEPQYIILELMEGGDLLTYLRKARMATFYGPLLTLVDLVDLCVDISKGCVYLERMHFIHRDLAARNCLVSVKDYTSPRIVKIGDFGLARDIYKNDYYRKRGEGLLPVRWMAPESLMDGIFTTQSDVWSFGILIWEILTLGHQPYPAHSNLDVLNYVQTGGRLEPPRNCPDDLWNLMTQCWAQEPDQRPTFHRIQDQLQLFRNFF
T1 sequence (Q9UM73 1116-1392 L1196M/G1202R limits assumed): as the sequence (Q9UM73 1116-1392 limits assumed) above, with L81M, G87R counted along it
T4 sequence (P04629 510-781 limits assumed): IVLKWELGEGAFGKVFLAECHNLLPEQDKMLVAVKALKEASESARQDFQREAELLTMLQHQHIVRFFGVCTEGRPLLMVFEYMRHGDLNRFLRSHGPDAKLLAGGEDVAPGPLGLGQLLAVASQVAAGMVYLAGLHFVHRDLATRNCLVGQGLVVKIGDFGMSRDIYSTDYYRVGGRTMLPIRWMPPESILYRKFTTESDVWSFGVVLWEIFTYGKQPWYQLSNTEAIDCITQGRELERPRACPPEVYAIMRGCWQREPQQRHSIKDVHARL
T10 sequence (P08922 1945-2222 G2032R limits assumed): as the sequence (P08922 1945-2222 limits assumed) above, with G88R counted along it

Row | SMILES | Ki [1] | IC50 [2] | IC50 [3] | Ki [4] | Ki [5] | Ki [6] | TPM3-NTRK1-wt/CD74-ROS1-G2032R selectivity ratio [7] | TPM3-NTRK1-wt/CD74-ROS1-wt selectivity ratio [7] | TPM3-NTRK1-wt/EML4-ALK-L1196M-G1202R selectivity ratio [7] | TPM3-NTRK1-wt/EML4-ALK-wt selectivity ratio [7] | IC50 [8] | IC50 [9] | IC50 [10] | Ki [11]
1 | Cc1nn(CC(C)C)c2c1Cn1ncnc1-c1ccc(F)cc1[C@@H](C)Oc1cc-2cnc1N [Example 79, (19R)-16-fluoro-5,19-dimethyl-3-(2-methylpropyl)-20-oxa-3,4,8,9,11,23-hexaazapentacyclo [19.3.1.0^2,^6.0^8,^12.0^13,^18]pentacosa-1(2.4),2(6),4,9,11,13,15,17,21(25),22-decaen-22-amine] | 50 to 500 nM | > 500 nM | > 500 nM | > 500 nM | < 50 nM | < 50 nM | B (bin B for high selectivity, ratio >10-fold) | A (bin A for very high selectivity, ratio >30-fold) | C (bin C for moderate selectivity, ratio ≥1) | A (bin A for very high selectivity, ratio >30-fold) | 0.1 to 50 nM | > 500 nM | 0.1 to 50 nM | > 500 nM
2 | C[C@H]1Oc2cc(cnc2N)-c2c(cnn2CC(F)F)Cc2ncc(F)cc2-c2ccc(F)cc21 [Example 73, (20R)-3-(2,2difluoroethyl)-11,17-difluoro-20-methyl-21-oxa-3,4.9,24-tetraazapentacyclo[20.3.1.0^2,^6.0^8,^13.0^13,^19]hexacosa-1(25),2(6),4,8(13),9,11,14,16,18,22(26),23-undecaen-23-amine] | < 50 nM | 0.1 to 50 nM | 50 to 500 nM | 50 to 500 nM | < 50 nM | < 50 nM | A (bin A for very high selectivity, ratio >30-fold) | A (bin A for very high selectivity, ratio >30-fold) | C (bin C for moderate selectivity, ratio ≥1) | A (bin A for very high selectivity, ratio >30-fold) | 0.1 to 50 nM | 50 to 500 nM | 0.1 to 50 nM | < 50 nM
3 | C[C@H]1Oc2cc(cnc2N)-c2c(cnn2C2CCC2)Cn2ncnc2-c2ccc(F)cc21 [Example 39, (19R)-3-cyclobutyl-16-fluoro-19-methyl-20-oxa-3,4,8,9,11,23-hexaazapentacyclo[19.3.1.0^2,^6.0^8,^12.0^13,^18]pentacosa-1(24),2(6),4,9,11,13,15,17,21(25),22-decaen-22-amine] | < 50 nM | 0.1 to 50 nM | > 500 nM | > 500 nM | < 50 nM | < 50 nM | A (bin A for very high selectivity, ratio >30-fold) | A (bin A for very high selectivity, ratio >30-fold) | B (bin B for high selectivity, ratio >10-fold) | A (bin A for very high selectivity, ratio >30-fold) | 0.1 to 50 nM | 50 to 500 nM | 0.1 to 50 nM | < 50 nM
4 | CCn1nc(C(F)(F)F)c2c1-c1cnc(N)c(c1)O[C@H](C)c1cc(F)ccc1-c1nn(C)nc1C2 [Example 80, (19R)-3-ethyl-16-fluoro-10,19-dimethyl-5-(trifluoromethyl)-20-oxa-3,4,9,10,11,23-hexaazapentacyclo[19.3.1.0^2,^6.0^8,^12.0^13,^18]pentacosa-1(24),2(6),4,8,11,13,15,17,21(25),22-decaen-22-amine] | 50 to 500 nM | 0.1 to 50 nM | > 500 nM | > 500 nM | < 50 nM | < 50 nM | A (bin A for very high selectivity, ratio >30-fold) | A (bin A for very high selectivity, ratio >30-fold) | C (bin C for moderate selectivity, ratio ≥1) | B (bin B for high selectivity, ratio >10-fold) | 0.1 to 50 nM | > 500 nM | 50 to 500 nM | 50 to 500 nM
5 | C[C@H]1Oc2cc(cnc2N)-c2c(C#N)cnn2Cc2nccnc2-c2ccc(F)cc21 [Example 47] | 50 to 500 nM | 50 to 500 nM | > 500 nM | > 500 nM | < 50 nM | < 50 nM | B (bin B for high selectivity, ratio >10-fold) | A (bin A for very high selectivity, ratio >30-fold) | C (bin C for moderate selectivity, ratio ≥1) | A (bin A for very high selectivity, ratio >30-fold) | 0.1 to 50 nM | > 500 nM | 0.1 to 50 nM | > 500 nM
6 | CCn1ncc2c1-c1cnc(N)c(c1)O[C@H](C)c1cc(F)ccc1-c1cc(F)nn1C2 [Example 15, (19R)-3-ethyl-10,16-difluoro-19-methyl-20-oxa-3,4,8,9,23-pentaazapentacyclo[19.3.1.0^2,^6.0^8,^12.0^13,^18]pentacosa-1(24),2(6),4,9,11,13,15,17,21(25),22-decaen-22-amine] | < 50 nM | 0.1 to 50 nM | 50 to 500 nM | 50 to 500 nM | < 50 nM | < 50 nM | A (bin A for very high selectivity, ratio >30-fold) | A (bin A for very high selectivity, ratio >30-fold) | C (bin C for moderate selectivity, ratio ≥1) | A (bin A for very high selectivity, ratio >30-fold) | 0.1 to 50 nM | 0.1 to 50 nM | 0.1 to 50 nM | < 50 nM
7 | Cc1nn(CC2CC2)c2c1Cn1nccc1-c1ccc(F)cc1[C@@H](C)Oc1cc-2cnc1N [Example 45, (19R)-3-(cyclopropylmethyl)-16-fluoro-5,19-dimethyl-20-oxa-3,4,8,9,23-pentaazapentacyclo[19.3.1.0^2,^6.0^8,^12.0^13,^18]pentacosa-1(24),2(6),4,9,11,13,15,17,21(25),22-decaen-22-amine] | < 50 nM | 0.1 to 50 nM | > 500 nM | > 500 nM | < 50 nM | < 50 nM | A (bin A for very high selectivity, ratio >30-fold) | A (bin A for very high selectivity, ratio >30-fold) | A (bin A for very high selectivity, ratio >30-fold) | A (bin A for very high selectivity, ratio >30-fold) | 0.1 to 50 nM | 50 to 500 nM | 0.1 to 50 nM | < 50 nM
